Assay results: ChEMBL document CHEMBL4376803, “Recent Advances in the Exploration of Therapeutic Analogues of Gramicidin S, an Old but Still Potent Antimicrobial Peptide” (J Med Chem, 2019)
≈ marks a conversion by molar mass, not a printed value. Square brackets hold non-standard residues; d marks the D form. Peptide text beside a SMILES is read from it.

Columns and labels:
[1] = tested on: Enterococcus faecalis; test: Antibacterial activity against Enterococcus faecalis after 24 hrs by microtitre dilution method; assay type: functional
[2] = tested on: Pseudomonas aeruginosa; test: Antibacterial activity against Pseudomonas aeruginosa after 24 hrs by microtitre dilution method; assay type: functional
[3] = Therapeutic index, ratio of HD100 for hemolytic activity in human erythrocytes to MIC against Escherichia coli; assay type: toxicity, cell-based; details: read-out: TI
[4] = tested on: Escherichia coli; test: Antibacterial activity against Escherichia coli after 24 hrs by microtitre dilution method; assay type: functional
[5] = Therapeutic index, ratio of HD100 for hemolytic activity in human erythrocytes to MIC against Pseudomonas aeruginosa; assay type: toxicity, cell-based; details: read-out: TI
[6] = tested on: Candida albicans; test: Antibacterial activity against Candida albicans after 24 hrs by microtitre dilution method; assay type: functional
[7] = Therapeutic index, ratio of HD100 for hemolytic activity in human RBC to MIC against Enterococcus faecalis; assay type: toxicity; details: human red blood cells, read-out: TI
[8] = tested on: Staphylococcus aureus; test: Antibacterial activity against Staphylococcus aureus after 24 hrs by microtitre dilution method; assay type: functional
[9] = Therapeutic index, ratio of HD100 for hemolytic activity in human RBC to MIC against Staphylococcus aureus; assay type: toxicity; details: human red blood cells, read-out: TI

## CC(C)C[C@@H]1NC(=O)[C@H](CCCCN)NC(=O)[C@H](C(C)C)NC(=O)[C@@H]2CCCN2C(=O)[C@@H](Cc2ccc(O)cc2)NC(=O)[C@H](CC(C)C)NC(=O)[C@H](CCCCN)NC(=O)[C@H](C(C)C)NC(=O)[C@H](CCCCN)NC(=O)[C@H](CC(C)C)NC(=O)[C@H](CCCCN)NC(=O)[C@@H]2CCCN2C(=O)[C@@H](Cc2ccc(O)cc2)NC(=O)[C@H](CCCCN)NC(=O)[C@H](C(C)C)NC(=O)[C@H](CCCCN)NC1=O (cyclo(VKLKVK[dY]PKLKVKL[dY]P))
[1]
  MIC: 4 µg/mL (≈ 2.08 µM)
[2]
  MIC: 64 µg/mL (≈ 33.2 µM)
[3]
  selectivity ratio: > 50
[4]
  MIC: 4 µg/mL (≈ 2.08 µM)
[5]
  selectivity ratio: > 3.1
[6]
  MIC: 16 µg/mL (≈ 8.31 µM)
[7]
  selectivity ratio: > 50
[8]
  MIC: 8 µg/mL (≈ 4.15 µM)
[9]
  selectivity ratio: > 25
